Assay results reported in PMC5931475, “Deciphering the molecular determinants of cholinergic anthelmintic sensitivity in nematodes: When novel functional validation approaches highlight major differences between the model Caenorhabditis elegans and parasitic species” (PLoS Pathogens, 2018).

How the values were obtained:
[1] = molecular target: T1, composite Cel-L-AChR with Ode-ACR-8 (29/38/63/L1 + Ode-ACR-8); experiment: two-electrode voltage clamp, Xenopus oocytes; type: cell-based, Caenorhabditis elegans; Oesophagostomum dentatum; conditions: read-out: Lev EC50; full agonist; responses normalized to 100 μM ACh
T1 construct: mixed-species complex of whole subunits; cRNA in Xenopus laevis oocytes with C. elegans RIC-3, UNC-50, UNC-74; LEV-8 replaced by O. dentatum ACR-8

[2] = system: composite Cel-L-AChR with Hco-UNC-38 (29/63/L1/L8 + Hco-UNC-38); set-up: species or system Xenopus laevis oocytes; conditions: Imax as % of 100 uM ACh response; agonist
[3] = molecular target: T2, composite Cel-L-AChR with Hco-ACR-8 (29/38/63/L1 + Hco-ACR-8); experiment: two-electrode voltage clamp, Xenopus oocytes; type: cell-based, Caenorhabditis elegans; Haemonchus contortus; conditions: read-out: Lev EC50; full agonist; responses normalized to 100 μM ACh
T2 construct: mixed-species complex of whole subunits; cRNA in Xenopus laevis oocytes with C. elegans RIC-3, UNC-50, UNC-74; LEV-8 replaced by H. contortus ACR-8

[4] = molecular target: T3, composite Cel-L-AChR with Asu-ACR-8 (29/38/63/L1 + Asu-ACR-8); experiment: two-electrode voltage clamp, Xenopus oocytes; type: cell-based, Caenorhabditis elegans; Ascaris suum; conditions: read-out: Lev EC50; agonist; responses normalized to 100 μM ACh
T3 construct: mixed-species complex of whole subunits; cRNA in Xenopus laevis oocytes with C. elegans RIC-3, UNC-50, UNC-74; LEV-8 replaced by A. suum ACR-8
T3 sequence (A0A2I6TEN1 25-521): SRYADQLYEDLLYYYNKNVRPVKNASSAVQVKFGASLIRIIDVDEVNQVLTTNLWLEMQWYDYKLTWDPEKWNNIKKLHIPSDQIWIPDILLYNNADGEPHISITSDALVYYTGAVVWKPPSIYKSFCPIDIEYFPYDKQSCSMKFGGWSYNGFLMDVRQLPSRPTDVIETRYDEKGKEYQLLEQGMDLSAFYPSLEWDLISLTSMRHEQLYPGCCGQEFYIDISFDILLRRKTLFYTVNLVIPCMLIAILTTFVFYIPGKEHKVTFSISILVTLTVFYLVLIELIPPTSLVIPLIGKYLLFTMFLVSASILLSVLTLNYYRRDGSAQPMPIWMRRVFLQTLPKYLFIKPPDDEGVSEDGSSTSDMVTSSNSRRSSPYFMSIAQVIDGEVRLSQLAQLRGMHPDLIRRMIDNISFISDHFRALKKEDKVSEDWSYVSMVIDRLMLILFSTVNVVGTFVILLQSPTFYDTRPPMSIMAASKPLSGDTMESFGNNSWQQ
T3 sequence (Q23022 17-511, further chain): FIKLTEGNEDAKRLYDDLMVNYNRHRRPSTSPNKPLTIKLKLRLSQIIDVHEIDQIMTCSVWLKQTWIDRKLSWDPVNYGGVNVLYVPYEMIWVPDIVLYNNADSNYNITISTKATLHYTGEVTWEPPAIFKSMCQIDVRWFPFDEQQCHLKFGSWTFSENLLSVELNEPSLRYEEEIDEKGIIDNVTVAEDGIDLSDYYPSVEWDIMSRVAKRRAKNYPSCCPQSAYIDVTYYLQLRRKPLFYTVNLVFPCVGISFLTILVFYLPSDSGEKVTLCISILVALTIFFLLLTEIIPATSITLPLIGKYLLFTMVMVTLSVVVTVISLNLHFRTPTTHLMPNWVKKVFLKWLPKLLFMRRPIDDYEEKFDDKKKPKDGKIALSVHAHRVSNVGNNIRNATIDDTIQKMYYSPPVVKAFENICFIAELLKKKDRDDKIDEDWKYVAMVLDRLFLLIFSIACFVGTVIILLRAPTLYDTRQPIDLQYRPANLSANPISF
T3 sequence (Q9N587 24-502, further chain): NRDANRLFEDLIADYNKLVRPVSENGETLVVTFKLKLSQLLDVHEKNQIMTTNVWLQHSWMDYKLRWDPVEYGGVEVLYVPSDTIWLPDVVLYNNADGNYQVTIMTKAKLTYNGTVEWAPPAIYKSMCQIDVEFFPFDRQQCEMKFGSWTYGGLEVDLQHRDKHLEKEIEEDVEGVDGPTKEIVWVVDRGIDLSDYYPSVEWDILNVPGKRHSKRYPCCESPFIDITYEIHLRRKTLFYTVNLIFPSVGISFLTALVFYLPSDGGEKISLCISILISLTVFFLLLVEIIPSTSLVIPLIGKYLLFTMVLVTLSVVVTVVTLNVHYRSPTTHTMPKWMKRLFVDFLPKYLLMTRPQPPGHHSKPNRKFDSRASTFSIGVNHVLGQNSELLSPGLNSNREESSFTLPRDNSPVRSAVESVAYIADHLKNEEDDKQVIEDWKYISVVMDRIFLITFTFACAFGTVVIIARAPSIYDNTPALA
T3 sequence (P48181 27-493, further chain): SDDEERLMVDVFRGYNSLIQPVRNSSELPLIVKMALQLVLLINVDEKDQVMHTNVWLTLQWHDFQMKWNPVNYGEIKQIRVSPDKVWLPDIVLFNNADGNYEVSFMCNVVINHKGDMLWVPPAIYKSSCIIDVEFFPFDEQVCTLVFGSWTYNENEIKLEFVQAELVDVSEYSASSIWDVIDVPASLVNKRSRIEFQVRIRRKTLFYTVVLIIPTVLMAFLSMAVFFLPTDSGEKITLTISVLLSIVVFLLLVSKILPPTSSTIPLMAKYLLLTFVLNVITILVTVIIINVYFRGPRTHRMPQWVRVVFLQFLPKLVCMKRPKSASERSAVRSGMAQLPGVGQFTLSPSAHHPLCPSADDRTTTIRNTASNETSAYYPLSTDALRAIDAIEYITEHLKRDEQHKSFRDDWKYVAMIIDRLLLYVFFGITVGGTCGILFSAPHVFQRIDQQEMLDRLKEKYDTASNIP
T3 sequence (Q27218 32-507, further chain): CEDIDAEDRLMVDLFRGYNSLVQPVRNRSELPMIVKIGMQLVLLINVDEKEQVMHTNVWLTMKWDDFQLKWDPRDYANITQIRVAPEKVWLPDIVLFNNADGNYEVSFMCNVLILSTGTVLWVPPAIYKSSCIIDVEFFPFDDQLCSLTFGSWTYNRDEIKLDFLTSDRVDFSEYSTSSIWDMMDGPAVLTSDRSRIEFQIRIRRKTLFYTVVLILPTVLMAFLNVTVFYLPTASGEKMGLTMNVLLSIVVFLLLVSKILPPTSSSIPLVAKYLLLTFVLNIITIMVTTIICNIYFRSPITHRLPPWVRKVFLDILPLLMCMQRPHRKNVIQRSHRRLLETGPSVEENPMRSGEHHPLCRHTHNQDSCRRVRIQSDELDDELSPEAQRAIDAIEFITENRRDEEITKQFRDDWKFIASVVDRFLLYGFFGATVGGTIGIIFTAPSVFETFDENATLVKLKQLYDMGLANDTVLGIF

[5] = molecular target: T4, Cel-L-AChR (29/38/63/L1 + Cel-LEV-8); experiment: two-electrode voltage clamp, Xenopus oocytes; type: cell-based, Caenorhabditis elegans; conditions: partial agonist; responses normalized to 100 μM ACh
T4 construct: gene unc-38; full-length subunits from cRNA in Xenopus laevis oocytes with ancillary C. elegans RIC-3, UNC-50, UNC-74; heteropentamer
T4 sequence (Q23022 17-511): as the sequence (Q23022 17-511, further chain) above
T4 sequence (Q9N587 24-502, further chain): as the sequence (Q9N587 24-502, further chain) above
T4 sequence (P48181 27-493, further chain): as the sequence (P48181 27-493, further chain) above
T4 sequence (Q27218 32-507, further chain): as the sequence (Q27218 32-507, further chain) above
T4 sequence (Q93329 26-531, further chain): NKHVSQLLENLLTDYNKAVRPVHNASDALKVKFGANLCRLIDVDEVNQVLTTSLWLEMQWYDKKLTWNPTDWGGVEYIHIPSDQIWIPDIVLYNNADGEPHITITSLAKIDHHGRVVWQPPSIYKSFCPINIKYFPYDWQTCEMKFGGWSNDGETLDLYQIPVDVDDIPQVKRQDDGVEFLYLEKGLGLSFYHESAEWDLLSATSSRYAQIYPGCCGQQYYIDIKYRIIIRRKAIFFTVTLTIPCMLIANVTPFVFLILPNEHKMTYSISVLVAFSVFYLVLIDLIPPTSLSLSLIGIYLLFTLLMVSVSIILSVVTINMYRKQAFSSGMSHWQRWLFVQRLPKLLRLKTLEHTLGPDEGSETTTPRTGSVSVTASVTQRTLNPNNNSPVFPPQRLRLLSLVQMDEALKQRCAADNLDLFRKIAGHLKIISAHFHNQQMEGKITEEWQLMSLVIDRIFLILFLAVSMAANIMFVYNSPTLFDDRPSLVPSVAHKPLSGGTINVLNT

[6] = molecular target: T5, composite Cel-L-AChR with Min-ACR-8 (29/38/63/L1 + Min-ACR-8); experiment: two-electrode voltage clamp, Xenopus oocytes; type: cell-based, Caenorhabditis elegans; Meloidogyne incognita; conditions: agonist; responses normalized to 100 μM ACh; read-out: Lev EC50
T5 construct: mixed-species complex of whole subunits; cRNA in Xenopus laevis oocytes with C. elegans RIC-3, UNC-50, UNC-74; LEV-8 replaced by M. incognita ACR-8
T5 sequence (A0A2I6TEK4 19-527): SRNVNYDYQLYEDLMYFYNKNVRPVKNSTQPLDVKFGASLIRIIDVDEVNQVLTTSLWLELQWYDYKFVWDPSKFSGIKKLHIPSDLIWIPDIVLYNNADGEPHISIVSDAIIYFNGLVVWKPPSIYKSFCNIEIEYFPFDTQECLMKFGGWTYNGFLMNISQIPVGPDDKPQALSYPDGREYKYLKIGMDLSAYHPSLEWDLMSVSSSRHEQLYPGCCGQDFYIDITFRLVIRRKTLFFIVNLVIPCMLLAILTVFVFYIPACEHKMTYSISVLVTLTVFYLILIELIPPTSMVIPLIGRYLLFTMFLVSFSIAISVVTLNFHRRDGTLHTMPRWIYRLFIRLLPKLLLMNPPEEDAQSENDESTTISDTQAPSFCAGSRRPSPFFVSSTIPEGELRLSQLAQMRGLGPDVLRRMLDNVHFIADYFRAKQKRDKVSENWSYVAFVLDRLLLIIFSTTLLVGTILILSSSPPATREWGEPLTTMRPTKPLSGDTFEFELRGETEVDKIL
T5 sequence (Q23022 17-511, further chain): as the sequence (Q23022 17-511, further chain) above
T5 sequence (Q9N587 24-502, further chain): as the sequence (Q9N587 24-502, further chain) above
T5 sequence (P48181 27-493, further chain): as the sequence (P48181 27-493, further chain) above
T5 sequence (Q27218 32-507, further chain): as the sequence (Q27218 32-507, further chain) above

[7] = system: T4, Cel-L-AChR (29/38/63/L1 + Cel-LEV-8); set-up: species or system Xenopus laevis oocytes; Agonist-evoked currents in cRNA-injected oocytes, concentration-response normalized to 100 uM ACh; conditions: Imax as % of 100 uM ACh response; agonist
From the text: (§1) The C. elegans L-AChR can be robustly expressed in Xenopus oocytes by co-expressing cRNAs from the five L-AChR subunits (UNC-38, UNC-63, UNC-29, LEV-1 and LEV-8) in combination with cRNA encoding three ancillary proteins (UNC-74, UNC-50 and RIC-3). Noticeably, the absence of any one of these AChR subunits or ancillary proteins from the injected cRNA mix leads to the loss of expression of functional receptor highlighting their major individual requirement. Taking advantage of this, we complemented the Cel-L-AChR by replacing the Cel-LEV-8 by ACR-8 subunits from distinct parasitic nematode species. As a preliminary set of experiments, cRNAs encoding ACR-8 from parasitic nematodes were micro-injected with the three ancillary proteins in order to test their ability to form a homomeric channel. […] Therefore, cRNAs encoding Cel-UNC-38, Cel-UNC-63, Cel-UNC-29, Cel-LEV-1, Cel-UNC-74, Cel-UNC-50 and Cel-RIC-3 in combination with either Hco-ACR-8 / Ode-ACR-8 / Asu-ACR-8 / Dim-ACR-8 / Min-ACR-8 were co-injected into Xenopus oocytes. Three days after injection, each of these combinations produced robust responses to 100μM ACh in oocytes (S3 Fig). Similarly, application of 100μM levamisole (Lev) elicited a response for all complemented Cel-L-AChRs. Dose response curves were generated for both ACh and Lev in complemented L-AChRs containing ACR-8 subunits from parasitic species (Fig 2 and Table 1). In comparison to the C. elegans L-AChR, we observed a drastic reduction of the ACh EC50 values in the composite L-AChRs complemented with Hco-ACR-8, Ode-ACR-8, Asu-ACR-8 and Dim-ACR-8. […] A. Representation of the putative arrangement of the C. elegans L-AChR subunits expressed in Xenopus oocytes and dose-response relationships for ACh (red triangle, n = 8) and Lev (white circle, n = 8). B-F. Representation of the putative subunit arrangement of the composite C. elegans L-AChRs including Cel-UNC-29, Cel-UNC-38, Cel-UNC-63, Cel-LEV-1 and the ACR-8 subunit from a parasitic nematode species: H. contortus ACR-8 (B), O. dentatum ACR-8 (C), A. suum ACR-8 (D), D. immitis ACR-8 (E) and M. incognita ACR-8 (F). Dose-response relationships for ACh and Lev are indicated by red triangles (n = 5–11) and white circles (n = 4–9), respectively. G-H. Representation of the putative subunit arrangement of the composite C. elegans L-AChRs with Hco-UNC-38 replacing Cel-UNC-38 (G) or Hco-UNC-63 replacing Cel-UNC-63 (H). Dose-response relationships for ACh and Lev are indicated by red triangles (n = 7–10) and white circles (n = 7–9), respectively. All responses are normalized to 100μM ACh. Results are shown as the mean ± se. […]

[8] = system: T5, composite Cel-L-AChR with Min-ACR-8 (29/38/63/L1 + Min-ACR-8); set-up: species or system Xenopus laevis oocytes; Agonist-evoked currents in cRNA-injected oocytes, concentration-response normalized to 100 uM ACh; conditions: Imax as % of 100 uM ACh response; agonist
From the text: as §1

[9] = system: T3, composite Cel-L-AChR with Asu-ACR-8 (29/38/63/L1 + Asu-ACR-8); set-up: species or system Xenopus laevis oocytes; Agonist-evoked currents in cRNA-injected oocytes, concentration-response normalized to 100 uM ACh; conditions: Imax as % of 100 uM ACh response; agonist
From the text: as §1

[10] = system: T6, composite Cel-L-AChR with Hco-UNC-63 (29/38/L1/L8 + Hco-UNC-63); set-up: species or system Xenopus laevis oocytes; Agonist-evoked currents in cRNA-injected oocytes, concentration-response normalized to 100 uM ACh; conditions: Imax as % of 100 uM ACh response; agonist
T6 construct: mixed-species complex of whole subunits; cRNA in Xenopus laevis oocytes with ancillary RIC-3, UNC-50, UNC-74; Cel-UNC-63 replaced by H. contortus UNC-63
T6 sequence (D6MYF4 22-504): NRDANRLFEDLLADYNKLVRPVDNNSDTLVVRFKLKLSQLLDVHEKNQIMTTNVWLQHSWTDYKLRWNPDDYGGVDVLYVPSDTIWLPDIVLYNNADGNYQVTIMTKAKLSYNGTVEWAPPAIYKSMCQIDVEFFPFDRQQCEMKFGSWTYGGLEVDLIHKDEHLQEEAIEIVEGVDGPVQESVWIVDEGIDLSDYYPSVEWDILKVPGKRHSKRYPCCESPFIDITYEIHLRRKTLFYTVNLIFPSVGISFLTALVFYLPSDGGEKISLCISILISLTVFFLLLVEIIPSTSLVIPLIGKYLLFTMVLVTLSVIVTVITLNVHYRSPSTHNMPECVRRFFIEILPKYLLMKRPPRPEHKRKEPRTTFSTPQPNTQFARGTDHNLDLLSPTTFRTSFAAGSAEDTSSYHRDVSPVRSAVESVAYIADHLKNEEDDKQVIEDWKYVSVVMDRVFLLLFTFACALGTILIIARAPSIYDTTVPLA
T6 sequence (Q23022 17-511, further chain): as the sequence (Q23022 17-511, further chain) above
T6 sequence (P48181 27-493, further chain): as the sequence (P48181 27-493, further chain) above
T6 sequence (Q27218 32-507, further chain): as the sequence (Q27218 32-507, further chain) above
T6 sequence (Q93329 26-531, further chain): as the sequence (Q93329 26-531, further chain) above
From the text: as §1

[11] = molecular target: T7, composite Cel-L-AChR with Hco-UNC-38 (29/63/L1/L8 + Hco-UNC-38); experiment: two-electrode voltage clamp, Xenopus oocytes; type: cell-based, Caenorhabditis elegans; Haemonchus contortus; conditions: read-out: Lev EC50; agonist; responses normalized to 100 μM ACh
T7 construct: mixed-species complex of whole subunits; cRNA in Xenopus laevis oocytes with ancillary RIC-3, UNC-50, UNC-74; Cel-UNC-38 replaced by H. contortus UNC-38

[12] = system: composite Cel-L-AChR with Hco-ACR-8 (29/38/63/L1 + Hco-ACR-8); set-up: species or system Xenopus laevis oocytes; conditions: Imax as % of 100 uM ACh response; agonist
[13] = system: composite Cel-L-AChR with Ode-ACR-8 (29/38/63/L1 + Ode-ACR-8); set-up: species or system Xenopus laevis oocytes; conditions: Imax as % of 100 uM ACh response; agonist
[14] = molecular target: T6, composite Cel-L-AChR with Hco-UNC-63 (29/38/L1/L8 + Hco-UNC-63); experiment: two-electrode voltage clamp, Xenopus oocytes; type: cell-based, Caenorhabditis elegans; Haemonchus contortus; conditions: read-out: Lev EC50; agonist; responses normalized to 100 μM ACh

c1ccc([C@H]2CN3CCSC3=N2)cc1 [levamisole] was tested, and the EC50 [1] was 11.7 ± 1.3 µM, the “Lev Imax” value [2] was 51.1 ±4.5% and the EC50 [3] was 2.7 ± 1.4 µM. The EC50 [4] was 5.8 ± 1.2 µM, the EC50 [5] was 6.4 ± 1.2 µM and the EC50 [6] was 10.1 ± 1.1 µM. The “Lev Imax” value [7] was 49.1±10.2%, the “Lev Imax” value [8] was 33.9 ±13.9% and the “Lev Imax” value [9] was 51.6 ±7.0%. For the same compound, the “Lev Imax” value [10] was 55.9 ±9.4%, the EC50 [11] was 13.5 ± 1.5 µM and the “Lev Imax” value [12] was 109.5 ±20.7%. For the same compound, the “Lev Imax” value [13] was 112.4 ±19.0% and the EC50 [14] was 12.1 ± 1.2 µM.
